{"source": "paper PMC3517602", "about": "(PLoS ONE, 2012)", "molecular_target": "T1, neuropeptide Y Y1 receptor (Y1R) (Homo sapiens, UniProt P25929)", "T1 construct": "gene NPY1R", "T1 sequence (P25929 1-384)": "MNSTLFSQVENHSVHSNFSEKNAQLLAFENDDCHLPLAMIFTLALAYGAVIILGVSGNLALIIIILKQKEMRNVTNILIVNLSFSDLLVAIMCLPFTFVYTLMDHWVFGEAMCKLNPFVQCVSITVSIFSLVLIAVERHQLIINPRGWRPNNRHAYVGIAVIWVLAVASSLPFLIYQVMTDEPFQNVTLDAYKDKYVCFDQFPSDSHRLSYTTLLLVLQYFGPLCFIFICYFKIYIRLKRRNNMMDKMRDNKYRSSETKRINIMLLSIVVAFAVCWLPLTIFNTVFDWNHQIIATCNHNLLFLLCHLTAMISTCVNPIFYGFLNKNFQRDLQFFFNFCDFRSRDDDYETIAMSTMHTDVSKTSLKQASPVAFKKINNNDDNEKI", "experiment": "radioligand saturation binding on whole MCF-7 (L) cells", "assay_type": "cell-based"}
{"compound": "CCC(=O)/N=C(/N)NCCC[C@@H](NC(=O)C(c1ccccc1)c1ccccc1)C(=O)NCc1ccc(O)cc1", "note": "[[^3H]-UR-MK114]", "values": [{"measurement": "Kd", "value": 5, "unit": "nM"}]}
